In patent publication US20150105252A1, “SUBSTITUTED PYRAZOLES AS HERBICIDES” (E I DU PONT DE NEMOURS AND COMPANY, priority 2013, published 2015):

Tests used:
barnyardgrass [1] = experiment: Test A preemergence; assay type: in vivo, Echinochloa crus-galli; details: preemergence
In short: (§1)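 Both timings tested concurrently in loam/sand soil: preemergence by directed soil spray, postemergence on plants of 2–10 cm at the one- to two-leaf stage. Greenhouse holding period was approximately 10 days before visual injury assessment (0–100, 0 = no effect).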

foxtail, giant = experiment: Test A preemergence; assay type: in vivo, Setaria faberii; details: preemergence; for Foxtail, Giant plant response rating (0 to 100 scale): 125 g ai/ha, visual injury approx. 10 days after treatment; for Foxtail, Giant plant response rating: 500 g ai/ha, visual injury after approx. 10 days, 0 to 100 scale (0 no effect, 100 complete control)
In short: as §1

pigweed = experiment: Test A preemergence; assay type: in vivo, Amaranthus retroflexus; details: preemergence; for Pigweed plant response rating (0 to 100 scale): 125 g ai/ha, visual injury approx. 10 days after treatment; for Pigweed plant response rating: 500 g ai/ha, visual injury after approx. 10 days, 0 to 100 scale (0 no effect, 100 complete control)
In short: as §1

velvetleaf = experiment: Test A preemergence; assay type: in vivo, Abutilon theophrasti; details: preemergence; for Velvetleaf plant response rating (0 to 100 scale): 125 g ai/ha, visual injury approx. 10 days after treatment; for Velvetleaf plant response rating: 500 g ai/ha, visual injury after approx. 10 days, 0 to 100 scale (0 no effect, 100 complete control)
In short: as §1

corn [2] = experiment: Test A preemergence; assay type: in vivo, Zea mays; details: preemergence; for Corn plant response rating (0 to 100 scale): 125 g ai/ha, visual injury approx. 10 days after treatment; for Corn plant response rating: 500 g ai/ha, visual injury after approx. 10 days, 0 to 100 scale (0 no effect, 100 complete control)
In short: as §1

wheat = experiment: Test A postemergence; assay type: in vivo, Triticum aestivum
In short: as §1

sedge, umbrella = experiment: Test B flood; assay type: in vivo, Cyperus difformis; details: 250 g ai/ha, visual rating on 0 to 100 scale (0 no effect, 100 complete control), 13 to 15 days
In short: (§2)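 Each compound is applied to the floodwater of pots holding 2-leaf seedlings, water standing 3 cm over the soil throughout. Plants stay in a greenhouse 13 to 15 days before visual scoring against controls from 0 (no effect) to 100 (complete control).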

ducksalad = experiment: Test B flood; assay type: in vivo, Heteranthera limosa; details: 250 g ai/ha, visual rating on 0 to 100 scale (0 no effect, 100 complete control), 13 to 15 days
In short: as §2

galium [3] = experiment: Test C preemergence; assay type: in vivo, Galium aparine; details: preemergence; for Plant response rating, Galium: 125 g ai/ha, scale 0 to 100, 0 = no effect, 100 = complete control
In short: (§3)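 In this greenhouse assay, seeded soil (loam plus sand) or emerged seedlings in peat-vermiculite medium were treated with formulated compound. Roughly two weeks later (13–15 days), each species was scored visually relative to controls, from 0 for no effect to 100 for complete control.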

corn [4] = experiment: Test C preemergence; assay type: in vivo, Zea mays; details: preemergence; for Plant response rating, Corn: 125 g ai/ha, scale 0 to 100, 0 = no effect, 100 = complete control
In short: as §3

morningglory = experiment: Test C preemergence; assay type: in vivo, Ipomoea coccinea; details: preemergence; for Plant response rating, Morningglory: 125 g ai/ha, scale 0 to 100, 0 = no effect, 100 = complete control
In short: as §3

barnyardgrass [5] = experiment: Test C preemergence; assay type: in vivo, Echinochloa crus-galli; details: preemergence; for Plant response rating, Barnyardgrass: 125 g ai/ha, scale 0 to 100, 0 = no effect, 100 = complete control
In short: as §3

blackgrass = experiment: Test C postemergence; assay type: in vivo, Alopecurus myosuroides; details: for Plant response rating (scale of 0 to 100 where 0 is no effect and 100 is complete control), Blackgrass: Postemergence, 31 g ai/ha, visually evaluated after 13 to 15 days; for Blackgrass plant response rating / Plant response rating, Blackgrass: postemergence; for Blackgrass plant response rating: 62 g ai/ha, scale 0 to 100
In short: as §3

galium [6] = experiment: Test C postemergence; assay type: in vivo, Galium aparine; details: for Plant response rating (scale of 0 to 100 where 0 is no effect and 100 is complete control), Galium: Postemergence, 31 g ai/ha, visually evaluated after 13 to 15 days; for Galium plant response rating / Plant response rating, Galium: postemergence; for Galium plant response rating: 62 g ai/ha, scale 0 to 100
In short: as §3

oilseed rape = experiment: Test C postemergence; assay type: in vivo, Brassica napus; details: for Oilseed Rape plant response rating / Plant response rating, Oilseed Rape: postemergence; for Oilseed Rape plant response rating: 62 g ai/ha, scale 0 to 100
In short: as §3

[7] = 500 g ai/ha, visual injury after approx. 10 days, 0 to 100 scale (0 no effect, 100 complete control)
[8] = Postemergence, 500 g ai/ha, 0 to 100 scale (0 no effect, 100 complete control)
[9] = 31 g ai/ha, visual rating, scale 0 to 100 (0 no effect, 100 complete control), 13 to 15 days
[10] = 62 g ai/ha, scale 0 to 100 (0 no effect, 100 complete control), 13 to 15 days
[11] = 250 g ai/ha, scale 0 to 100, 0 is no effect, 100 is complete control
[12] = 250 g ai/ha, scale 0 to 100 (0 no effect, 100 complete control)
[13] = 125 g ai/ha, scale 0 to 100, 0 no effect, 100 complete control

With `CCCc1cc(C(=O)NC(C)C)nn1Cc1cc(C(F)(F)F)nn1C` [Compound 201] the “Barnyardgrass plant response rating (0 to 100 scale, 0 is no effect, 100 is complete control)” value (barnyardgrass [1]; 125 g ai/ha, visual injury approx. 10 days after treatment) was 100, the “Barnyardgrass plant response rating” value (barnyardgrass [1]; [7]) was 100 and the “Foxtail, Giant plant response rating (0 to 100 scale)” value (foxtail, giant) was 100. The “Foxtail, Giant plant response rating” value (foxtail, giant) was 100, the “Pigweed plant response rating (0 to 100 scale)” value (pigweed) was 100 and the “Pigweed plant response rating” value (pigweed) was 100. For the same molecule, the “Velvetleaf plant response rating (0 to 100 scale)” value (velvetleaf) was 100, the “Velvetleaf plant response rating” value (velvetleaf) was 100 and the “Corn plant response rating (0 to 100 scale)” value (corn [2]) was 10. For the same molecule, the “Corn plant response rating” value (corn [2]) was 90, the “Wheat plant response rating” value (wheat; Postemergence, 125 g ai/ha, 0 to 100 scale, 0 no effect, 100 complete control) was 90 and the “Wheat plant response rating” value (wheat; [8]) was 100. For the same molecule, the “Plant response rating, Sedge, Umbrella” value (sedge, umbrella) was 95, the “Plant response rating, Ducksalad” value (ducksalad) was 95 and the “Galium plant response rating” value (galium [3]; [9]) was 95. For the same molecule, the “Galium plant response rating” value (galium [3]; [10]) was 95, the “Plant response rating, Galium” value (galium [3]; 13 to 15 days) was 98 and the “Galium plant response rating” value (galium [3]; [11]) was 100. For the same molecule, the “Corn plant response rating” value (corn [4]; [9]) was 40, the “Corn plant response rating” value (corn [4]; [10]) was 60 and the “Plant response rating, Corn” value (corn [4]; 13 to 15 days) was 70. The “Corn plant response rating” value (corn [4]; [11]) was 95, the “Morningglory plant response rating” value (morningglory; [9]) was 85 and the “Morningglory plant response rating” value (morningglory; [10]) was 100. The “Plant response rating, Morningglory” value (morningglory; 13 to 15 days) was 100, the “Morningglory plant response rating” value (morningglory; [11]) was 100 and the “Barnyardgrass plant response rating” value (barnyardgrass [5]; [9]) was 98. For the same molecule, the “Barnyardgrass plant response rating” value (barnyardgrass [5]; [10]) was 100, the “Plant response rating, Barnyardgrass” value (barnyardgrass [5]; 13 to 15 days) was 100 and the “Barnyardgrass plant response rating” value (barnyardgrass [5]; [11]) was 100. For the same molecule, the “Plant response rating (scale of 0 to 100 where 0 is no effect and 100 is complete control), Blackgrass” value (blackgrass) was 20, the “Blackgrass plant response rating” value (blackgrass) was 5 and the “Plant response rating, Blackgrass” value (blackgrass; [12]) was 60. For the same molecule, the “Plant response rating, Blackgrass” value (blackgrass; [13]) was 15, the “Plant response rating (scale of 0 to 100 where 0 is no effect and 100 is complete control), Galium” value (galium [6]) was 60 and the “Galium plant response rating” value (galium [6]) was 80. For the same molecule, the “Plant response rating, Galium” value (galium [6]; [12]) was 95, the “Plant response rating, Galium” value (galium [6]; [13]) was 60 and the “Oilseed Rape plant response rating” value (oilseed rape) was 60. For the same molecule, the “Plant response rating, Oilseed Rape” value (oilseed rape; [12]) was 80 and the “Plant response rating, Oilseed Rape” value (oilseed rape; [13]) was 50.

`O=C(NC1CC1)c1cc(CCCl)n(Cc2ccnc(C(F)(F)F)c2)n1` [Compound 144] was tested, and the “Barnyardgrass plant response rating” value (barnyardgrass [1]; 125 g ai/ha, visual injury, 0 to 100 scale, approx. 10 days) was 100, the “Barnyardgrass plant response rating” value (barnyardgrass [1]; [7]) was 100 and the “Foxtail, Giant plant response rating (0 to 100 scale)” value (foxtail, giant) was 100. For the same molecule, the “Foxtail, Giant plant response rating” value (foxtail, giant) was 100, the “Pigweed plant response rating (0 to 100 scale)” value (pigweed) was 100 and the “Pigweed plant response rating” value (pigweed) was 100. The “Velvetleaf plant response rating (0 to 100 scale)” value (velvetleaf) was 50, the “Velvetleaf plant response rating” value (velvetleaf) was 100 and the “Corn plant response rating (0 to 100 scale)” value (corn [2]) was 10. The “Corn plant response rating” value (corn [2]) was 80, the “Wheat plant response rating” value (wheat; [8]) was 90 and the “Wheat plant response rating” value (wheat; postemergence, 125 g ai/ha, about 10 days, visual rating on 0 to 100 scale (0 no effect, 100 complete control)) was 50. For the same molecule, the “Plant response rating, Sedge, Umbrella” value (sedge, umbrella) was 95, the “Plant response rating, Ducksalad” value (ducksalad) was 95 and the “Galium plant response rating” value (galium [3]; [9]) was 30. The “Galium plant response rating” value (galium [3]; [10]) was 80, the “Plant response rating, Galium” value (galium [3]; 13 to 15 days) was 100 and the “Galium plant response rating” value (galium [3]; [11]) was 100. For the same molecule, the “Corn plant response rating” value (corn [4]; [9]) was 5, the “Corn plant response rating” value (corn [4]; [10]) was 20 and the “Plant response rating, Corn” value (corn [4]; 13 to 15 days) was 60. The “Corn plant response rating” value (corn [4]; [11]) was 85, the “Morningglory plant response rating” value (morningglory; [9]) was 60 and the “Morningglory plant response rating” value (morningglory; [10]) was 100. The “Plant response rating, Morningglory” value (morningglory; 13 to 15 days) was 100, the “Morningglory plant response rating” value (morningglory; [11]) was 100 and the “Barnyardgrass plant response rating” value (barnyardgrass [5]; [9]) was 75. For the same molecule, the “Barnyardgrass plant response rating” value (barnyardgrass [5]; [10]) was 98, the “Plant response rating, Barnyardgrass” value (barnyardgrass [5]; 13 to 15 days) was 100 and the “Barnyardgrass plant response rating” value (barnyardgrass [5]; [11]) was 100. For the same molecule, the “Plant response rating (scale of 0 to 100 where 0 is no effect and 100 is complete control), Blackgrass” value (blackgrass) was 20, the “Blackgrass plant response rating” value (blackgrass) was 5 and the “Plant response rating, Blackgrass” value (blackgrass; [12]) was 35. For the same molecule, the “Plant response rating, Blackgrass” value (blackgrass; [13]) was 30, the “Plant response rating (scale of 0 to 100 where 0 is no effect and 100 is complete control), Galium” value (galium [6]) was 40 and the “Galium plant response rating” value (galium [6]) was 55. For the same molecule, the “Plant response rating, Galium” value (galium [6]; [12]) was 85, the “Plant response rating, Galium” value (galium [6]; [13]) was 70 and the “Plant response rating (scale of 0 to 100 where 0 is no effect and 100 is complete control), Oilseed Rape” value (oilseed rape; Postemergence, 31 g ai/ha, visually evaluated after 13 to 15 days) was 50. The “Oilseed Rape plant response rating” value (oilseed rape) was 50, the “Plant response rating, Oilseed Rape” value (oilseed rape; [12]) was 65 and the “Plant response rating, Oilseed Rape” value (oilseed rape; [13]) was 60.
